Source: patent publication US20180002400A1, “SHORT PEPTIDE-BASED THERAPEUTIC AGENT AND MEDICINAL COMPOSITION INCLUDING THE SAME FOR INHIBITING ACTIVITIES OF CANCER CELLS” (NATIONAL CHENG KUNG UNIVERSITY, priority 2015, published 2018)

Experiments:
[1] = system: lung cancer A549 cell; assay: Drug resistance (CDDP, 5-FU) induced by euPTX3, MTT assay; format: cell-based, human; conditions: A549; short peptide 10 μg/mL or 225 nM + euPTX3 2.5 μg/mL 1 week, then 40 μM CDDP or 100 μM 5-FU 48 hours; FIG. 2B
Description: (§1) The cell density 1×10^4 cells/well of the breast cancer MB231 cell, the lung cancer A549 cell and the nasopharyngeal cancer HONE1 cell were co-cultured with the short peptides RI37, GI40 and KT44 (10 μg/mL or 225 nM of the short peptide) and the polypeptide euPTX3 (2.5 μg/mL) of Example 1. After 1 week of cultivation, those cancer cells were added with 40 μM of CDDP or 100 μM of 5-FU respectively and cultured for 48 hours. Based on the cell viability of the cells only co-cultured with the polypeptide euPTX3 (2.5 μg/mL) as 100%, the influence of drug resistance of the cancer cells of Example 2 using the short peptides of Example 1 could be determined according to the aforementioned MTT assay.

[2] = system: breast cancer MB231 cell; assay: as above; format: cell-based, human; conditions: MB231; short peptide 10 μg/mL or 225 nM + euPTX3 2.5 μg/mL 1 week, then 40 μM CDDP or 100 μM 5-FU 48 hours; FIG. 1D
Description: as §1

[3] = system: nasopharyngeal cancer HONE1 cell; assay: as above; format: cell-based, human; conditions: HONE1; short peptide 10 μg/mL or 225 nM + euPTX3 2.5 μg/mL 1 week, then 40 μM CDDP or 100 μM 5-FU 48 hours; FIG. 3B
Description: as §1

[4] = system: drug-resistant 4T1R breast cancer; assay: Allograft tumor model, CDDP-resistant 4T1R cells in BALB/c mice; format: in vivo, mouse; conditions: 4T1R in BALB/c mice; for drug resistance generated by the tumor: 50 μg short peptide intratumorally twice weekly combined with CDDP 5 mg/kg i.p. once weekly; for drug resistance generated by the tumor / tumor growth (tumor size): FIG. 4A; for tumor growth (tumor size): 50 μg short peptide intratumorally twice weekly; for tumor metastasis and growth (images of tumors of various organs, epi-fluorescence radiance efficiency): IVIS imaging; for tumor metastasis (number of metastatic nodules per lung) / tumor growth (tumor weight per lung): sacrificed after six weeks; for tumor metastasis (number of metastatic nodules per lung): FIG. 4B left panel; for tumor growth (tumor weight per lung): FIG. 4B right panel
Description: In this Example, 1×10^6 mCherry fluorescent protein-labeled CDDP-resistant mouse 4T1 cells (4T1R; ATCC CRL-2539) were inoculated subcutaneously to the rear side of the back of six to eight-week-old female BALB/c mice (purchased from Laboratory Animal Center of National Cheng Kung University). After 1 week of inoculation, the mice were intraperitoneally injected with 5 mg/kg of CDDP [dissolved in 1% (w/v) DMSO] or only 1% (w/v) of DMSO once weekly, and intratumorally uninjected or injected with 50 μg of the short peptides RI37, GI40 and KT44 of Example 1 twice weekly. The mice were sacrificed after six weeks of inoculation. Spleen, kidneys, lungs and liver were obtained, tumor weight of those organs were measured according to 6 replications per group, and the metastatic activity and the number of metastatic nodules per organ were confirmed by IVIS Spectrum Imaging System 200 (Caliper). The tumor size was measured by a commercial external caliper, and the tumor volume (V) was calculated by the following formula (I): […]
In the formula (I), w was referred to tumor width, l was referred to tumor length. Each condition of the experiment was repeated at least thrice.

[5] = system: drug-resistant breast cancer MB231R (MBR) cells; assay: Cancer cell invasion (matrigel-coated insert) induced by euPTX3; format: cell-based, human
[6] = MB231R (MBR), identical molecular number: euPTX3 2.5 μg/mL, RI37 3.7 μg/mL, GI40 4 μg/mL, pPTX3/C 10 μg/mL, FIG. 5B right panel
[7] = breast cancer cells, short peptide 10 μg/mL + euPTX3 2.5 μg/mL, FIG. 1E right panel

## GI40: artificially synthetic short peptide having the amino acid sequence listed as SEQ ID NO:2, designed from human PTX3 (NP_002843.2) (GGGFDETLAFSGRLTGFNIWDSVLSNEEIRETGGAESCHI; The 320th amino acid to 359th amino acid of Human sapiens PTX3 (GI40))
[1]
  drug resistance induced by the polypeptide euPTX3 (cell viability): could effectively inhibit the drug resistance
[2]
  drug resistance induced by the polypeptide euPTX3 (cell viability): could effectively inhibit the drug resistance
[3]
  drug resistance induced by the polypeptide euPTX3 (cell viability): could effectively inhibit the drug resistance
[4]
  drug resistance generated by the tumor: reduce the drug resistance
  tumor growth (tumor size): could inhibit tumor growth
  tumor metastasis (number of metastatic nodules per lung): could inhibit tumor metastasis
  tumor growth (tumor weight per lung): could inhibit tumor metastasis and growth
[4]; FIG. 4C
  tumor metastasis and growth (images of tumors of various organs, epi-fluorescence radiance efficiency): could inhibit tumor metastasis and growth
[5]; [6]
  invasive cell numbers induced by the polypeptide euPTX3: could effectively inhibit the invasive cell numbers
[5]; [7]
  invasive cell numbers induced by the polypeptide euPTX3: could effectively inhibit the invasive cell numbers

## KT44: artificially synthetic peptide having the amino acid sequence listed as SEQ ID NO:3 (KLVAEAMVSLGRWTHLCGTWNSEEGLTSLWVNGELAATTVEMAT; The 255th amino acid to 298th amino acid of Human sapiens PTX3 (KT44))
[1]
  drug resistance induced by the polypeptide euPTX3 (cell viability): could not significantly inhibit the drug resistance
[2]
  drug resistance induced by the polypeptide euPTX3 (cell viability): could not significantly inhibit the drug resistance
[3]
  drug resistance induced by the polypeptide euPTX3 (cell viability): could not significantly inhibit the drug resistance
[4]
  tumor growth (tumor size): could not significantly inhibit the tumor growth
  tumor metastasis (number of metastatic nodules per lung): could not significantly inhibit tumor metastasis
  tumor growth (tumor weight per lung): could not significantly inhibit tumor metastasis and growth
[4]; FIG. 4C
  metastatic nodules in organs (imaging): metastatic nodules was found in lungs
  tumor metastasis and growth (images of tumors of various organs, epi-fluorescence radiance efficiency): could not significantly inhibit tumor metastasis and growth
[5]; [7]
  invasive cell numbers induced by the polypeptide euPTX3: could not inhibit the invasive cell numbers

## RI37: artificially synthetic short peptide having the amino acid sequence listed as SEQ ID NO:1, designed from human PTX3 (NP_002843.2) (RPMRLESFSACIWVKATDVLNKTILFSYGTKRNPYEI; The 200th amino acid to 236th amino acid of Human sapiens PTX3 (RI37))
[1]
  drug resistance induced by the polypeptide euPTX3 (cell viability): could effectively inhibit the drug resistance
[2]
  drug resistance induced by the polypeptide euPTX3 (cell viability): could effectively inhibit the drug resistance
[3]
  drug resistance induced by the polypeptide euPTX3 (cell viability): could effectively inhibit the drug resistance
[4]
  drug resistance generated by the tumor: reduce the drug resistance
  tumor growth (tumor size): could inhibit tumor growth
  tumor metastasis (number of metastatic nodules per lung): could inhibit tumor metastasis
  tumor growth (tumor weight per lung): could inhibit tumor metastasis and growth
[4]; FIG. 4C
  tumor metastasis and growth (images of tumors of various organs, epi-fluorescence radiance efficiency): could inhibit tumor metastasis and growth
[5]; [6]
  invasive cell numbers induced by the polypeptide euPTX3: could effectively inhibit the invasive cell numbers
[5]; [7]
  invasive cell numbers induced by the polypeptide euPTX3: could effectively inhibit the invasive cell numbers
